According to patent US5925369A, “Bis alkanoyl esters of carnitine having bactericidal, fungicidal and antiprotozoal activity” (priority 1996, dated 1999):
Read-outs that look alike come from different tables or passages of the source.

Experiments:
Candida albicans = assay: MIC on yeast-like strains; type: cell-based; details: read-out: Minimal Inhibitory Concentration
Procedure: (§1) Overnight yeast cultures in Sabouraud broth are appropriately washed and diluted in Yeast Nitrogen Base supplemented with asparagine and glucose (Y.N.B.s.) to yield approximately 5.0×10^4 CFU/ml in microtiter wells. Substance dilutions (0.3 log) in Y.N.B.s. are added to these suspensions to a final concentration range from 0.19 to 100 mcg/ml. Microtiter plates are then incubated at 35° C. for 24-48 hours (See PFALLER M., RINALDI M. G., […] J. M., BARTLETT M. S., BODY B. A., ESPINEL-INGROFF A., FROMTLING R. A., HALL G. S., HUGHES G. E., ODDS F. C., SUGAR A. M., Collaborative investigator of variables in susceptibility testing of yeasts, Ant. Agent and Chemoth., 34, 9:1648-1656, 1990. COOK R., McINTYRE K. A., […] J. M., Effects of incubation temperature, inoculum size, and medium on agreement of macro and microdilution broth susceptibility test, results for yeasts, Ant. Agent and Chemoth., 34, 8:1542-1545, 1990. […] E., PAETZNICK V., BODEY G. P., Fluconazole susceptibility testing of "Candida albicans" microtiter method that is indipendent of inoculum size, temperature, and time of reaching, Ant. Agent and Chemoth., 35, 8:1641-1646, 1991).

C. krusei = assay: MIC on yeast-like strains; type: cell-based; details: Pichia kudriavzevii; C. krusei ISS 1, lab collection; read-out: Minimal Inhibitory Concentration
Procedure: as §1

C. tropicalis = assay: MIC on yeast-like strains; type: cell-based; details: Candida tropicalis; C. tropicalis ISS 1, lab collection; read-out: Minimal Inhibitory Concentration
Procedure: as §1

S. cerevisiae = assay: MIC on yeast-like strains; type: cell-based; details: Saccharomyces cerevisiae, ATCC7752; S. cerevisiae ATCC 7752, lab collection; read-out: Minimal Inhibitory Concentration
Procedure: as §1

Candida strains = assay: MIC on Candida strains (all clinical isolates); type: cell-based, Candida albicans; details: for MIC: Candida clinical isolates, 10 strains
Procedure: as §1

Pseudomonas aeruginosa = assay: MIC on Gram negative bacteria; type: cell-based; details: Pseudomonas aeruginosa IDI 3530, clinical isolate (ulcer); read-out: Minimal Inhibitory Concentration
Procedure: (§2) Bacterial suspensions are prepared from an overnight culture in Mueller-Hinton broth and are adjusted, in the same medium, to a final concentration of 5.0×10^4 cells/ml in each well of a 96-well microtiter plate. Substance dilutions (0.3 log) in Mueller-Hinton broth are added to the suspensions in order to have a range of final concentrations from 0.19 to 100 mcg/ml.
(§3) Microtiters are then incubated at 37° C. for 18 hours. (See L. D. THRUPP, Susceptibility testing of antibiotics in liquid media, in: Antibiotics in laboratory medicine. V. LORIAN Ed., II edition, 4, 93-150, Williams & Wilkins, Baltimora, Md. 21202 U.S.A.).

P. vulgaris = assay: MIC on Gram negative bacteria; type: cell-based; details: Proteus vulgaris; P. vulgaris UM, lab collection; read-out: Minimal Inhibitory Concentration
Procedure: as §2, §3

S. typhimurium = assay: MIC on Gram negative bacteria; type: cell-based; details: Salmonella enterica; S. typhimurium DS, lab collection; read-out: Minimal Inhibitory Concentration
Procedure: as §2, §3

[1] = tested on: E. coli (Escherichia coli); assay: MIC on Gram negative bacteria; type: cell-based; details: read-out: Minimal Inhibitory Concentration
Procedure: as §2, §3

E. aerogenes = assay: MIC on Gram negative bacteria; type: cell-based; details: Klebsiella aerogenes; E. aerogenes UM, lab collection; read-out: Minimal Inhibitory Concentration
Procedure: as §2, §3

Mucor mucedo = assay: MIC on filamentous fungi; type: cell-based; details: ATCC7941; Mucor mucedo ATCC 7941, lab collection; read-out: Minimal Inhibitory Concentration
Procedure: (§4) The conidia are collected from 72-hour cultures in Sabouraud agar by washing them with Sabouraud broth and 0.5% Tween 80. After a coarse filtration and washing, the resulting suspensions are adjusted to a final concentration of approx. 5.0×10^4 CFU/ml in a microtiter plate. The substances (0.3 log dilutions in Y.N.B.s.) are added to the fungal suspensions in order to generate a range of final concentrations from 0.19 to 100 mcg/ml. The microtiter plates are then incubated at 35° C. for 48-72 hours.

Fusarium sp. = assay: MIC on filamentous fungi; type: cell-based; details: Fusarium sp. F 77, lab collection; read-out: Minimal Inhibitory Concentration
Procedure: as §4

Penicillium sp. = assay: MIC on filamentous fungi; type: cell-based; details: Penicillium sp. 1302, lab collection; read-out: Minimal Inhibitory Concentration
Procedure: as §4

Aspergillus niger = assay: MIC on filamentous fungi; type: cell-based; details: ATCC16404; Aspergillus niger ATCC 16404, lab collection; read-out: Minimal Inhibitory Concentration
Procedure: as §4

Aspergillus fumigatus = assay: MIC on filamentous fungi; type: cell-based; details: ATCC28212; Aspergillus fumigatus ATCC 28212, lab collection; read-out: Minimal Inhibitory Concentration
Procedure: as §4

[2] = C. albicans 562, lab collection
[3] = C. albicans ISS 1, lab collection
[4] = Candida albicans 1786/94, clinical isolate
[5] = Candida albicans IDI D 0101, clinical isolate (eczema, internatal; prior Versus)
[6] = Candida albicans IDI D 0297, clinical isolate (vulvar vaginitis; prior Pevaryl)
[7] = Candida albicans IDI D 1046, clinical isolate (glossitis; prior Daktarin)
[8] = Candida albicans IDI D 1056, clinical isolate
[9] = Candida albicans IDI D 1088, clinical isolate
[10] = Candida albicans IDI D 3575, clinical isolate
[11] = Candida albicans SG 2 III, clinical isolate (vaginitis)
[12] = Candida albicans SG 7 I, clinical isolate (Tinea unguis, hands)
[13] = Candida albicans SG 14 III, clinical isolate (vaginitis)
[14] = Escherichia coli SG 4 II, clinical isolate

Compound | MIC (Candida albicans; [2]) | MIC (Candida albicans; [3]) | MIC (Candida albicans; [4]) | MIC (Candida albicans; [5]) | MIC (Candida albicans; [6]) | MIC (Candida albicans; [7]) | MIC (Candida albicans; [8]) | MIC (Candida albicans; [9]) | MIC (Candida albicans; [10]) | MIC (Candida albicans; [11]) | MIC (Candida albicans; [12]) | MIC (Candida albicans; [13]) | MIC (C. krusei) | MIC (C. tropicalis) | MIC (S. cerevisiae) | MIC (Candida strains) | MIC (Pseudomonas aeruginosa) | MIC (P. vulgaris) | MIC (S. typhimurium) | MIC ([1]; E. coli 92 F, lab collection) | also measured
CCCCCCCCCCCOC(=O)C[C@H](C[N+](C)(C)C)OC(=O)CC(C)C [ST 1103, isovaleryl L-carnitine undecyl ester methanesulfonate, reference compound] | 3.12 µg/mL | 1.56 µg/mL | 6.25 µg/mL | 6.25 µg/mL | 3.12 µg/mL | 3.12 µg/mL | 3.12 µg/mL | 3.12 µg/mL | 6.25 µg/mL | 6.25 µg/mL | 3.12 µg/mL | 6.25 µg/mL | 3.12 µg/mL | 3.12 µg/mL | 3.12 µg/mL | 4.68 µg/mL | 25 µg/mL | 50 µg/mL | 25 µg/mL | 25 µg/mL | MIC [1, 14]: 25 µg/mL; MIC (E. aerogenes): 25 µg/mL; MIC (Mucor mucedo): 50 µg/mL; MIC (Fusarium sp.): 6.25 µg/mL; MIC (Penicillium sp.): 12.5 µg/mL; MIC (Aspergillus niger): 12.5 µg/mL; MIC (Aspergillus fumigatus): 12.5 µg/mL
CCCCCCCCCCC(=O)O[C@H](CC(=O)OCc1ccc(COC(=O)C[C@H](C[N+](C)(C)C)OC(=O)CCCCCCCCCC)cc1)C[N+](C)(C)C [ST 1226, bis(undecanoyl L-carnitine chloride)p-xylilene diester] | 3.12 µg/mL | 3.12 µg/mL | 3.12 µg/mL | 1.56 µg/mL | 3.12 µg/mL | 3.12 µg/mL | 1.56 µg/mL | 3.12 µg/mL | 3.12 µg/mL | 1.56 µg/mL | 3.12 µg/mL | 1.56 µg/mL | 3.12 µg/mL | 1.56 µg/mL | 1.56 µg/mL | 2.49 µg/mL | 50 µg/mL | 50 µg/mL | 25 µg/mL | 25 µg/mL | activity compared with ST 1103 (Candida strains; yeast-like strains, mostly Candida clinical isolates): higher activity than ST 1103, mostly against Candida clinical isolates; MIC [1, 14]: 12.5 µg/mL; MIC (E. aerogenes): 6.25 µg/mL; MIC (Mucor mucedo): 25 µg/mL; MIC (Fusarium sp.): 3.12 µg/mL; MIC (Penicillium sp.): 1.56 µg/mL; MIC (Aspergillus niger): 6.25 µg/mL; MIC (Aspergillus fumigatus): 6.25 µg/mL
